{"source": "paper PMC5556019", "about": "“Targeting Apolipoprotein E/Amyloid β Binding by Peptoid CPO_Aβ17-21 P Ameliorates Alzheimer’s Disease Related Pathology and Cognitive Decline” (Scientific Reports, 2017)", "key": {"[1]": {"system": "SK-N-SH human neuroblastoma cells", "assay": "Toxicity rescue: apoE4-enhanced cytotoxicity of oligomeric Aβ42", "type": "cell-based", "settings": "Aβ42 10 µM, apoE4 1 µM pre-incubated 6 hrs with inhibitor (Aβ12-28 P 4 µM; CPO_Aβ17-21 P 1 or 4 µM), three days", "method": "Oligomeric Aβ42 was prepared as previously published. To prepare 100 µM oligomeric Aβ42 stock solution, 0.45 mg HFIP pretreated Aβ42 peptide was dissolved into 20 µl fresh dry dimethyl sulfoxide (DMSO) to form 5 mM Aβ42 DMSO solution; then 980 µl ice cold phenol-free Ham’s F-12 cell culture medium (with 146 mg/L L-Glutamine) was added to the Aβ42 DMSO solution followed by incubation at 4 °C for 24 hrs. CPO_ Aβ17–21 P or Aβ12-28 P was pre-incubated with apoE4 in DMEM medium containing 1% N-2 supplement for 6 hrs at 37 °C then mixed with freshly prepared oligomeric Aβ42 and added to SK-N-SH cells. For comparison, cells were incubated with Aβ42 alone and Aβ42 + apoE4, apoE alone, Aβ42 + CPO_Aβ17-21 P and Aβ42 + Aβ12-28 P as additional controls. The final concentration of peptides or peptoids was as follows: Aβ42 10 µM, apoE4 1 µM, Aβ12-28 P 4 µM and CPO_Aβ17-21 P 1 µM or 4 µM. Cells were under different treatments for three days and the cell viability was assessed as described above."}, "APP/PS1 Tg mice [2]": {"system": "APP/PS1 Tg mice", "assay": "Total amyloid burden by 6E10/4G8 immunohistochemistry", "type": "in vivo, mouse", "settings": "one-tailed unpaired t-test", "method": "The effect of CPO_Aβ17-21 P on Aβ deposition was tested in APP/PS1 Tg mice with plaque pathology. This AD mouse model develops plaque pathology from the age of 3 months. Animals were divided into two groups and received intraperitoneally (i.p.) injections of 0.2 mg of CPO_ Aβ17–21 P per mouse in sterile saline (n = 11, 5 male, 6 female) or saline alone (n = 10, 5 male, 5 female) as a control twice weekly for 4 months, beginning at age 3 months. During the treatment, veterinary staff monitored animals for any signs of toxicity, such as changes in body weight, physical appearance, and altered behavior. Animals were sacrificed a week after administration of the last treatment dose and behavioral testing. […]\nMice were anesthetized with sodium pentobarbital (150 mg/kg, i.p.) and blood was collected via cardiac puncture and plasma was separated by centrifugation. […] To examine brain inflammation levels associated with treatment, we assessed the degree of astrocytosis with GFAP immunoreactivity and the degree of microgliosis with Iba1 and CD11b immunoreactivity as previously published, [37], [39], [40]. […]\nAmyloid burden was measured by a Bioquant stereology (BIOQUANT Image Analysis Corporation, Nashville, TN) semi-automated image analysis system using a randomized and unbiased sampling scheme according to our previous published protocol, [19], [37], [39], [40]. […]"}, "APP/PS1 Tg mice [3]": {"system": "APP/PS1 Tg mice", "assay": "Astrocytosis and microgliosis by GFAP, CD11b and Iba1 immunoreactivity", "type": "in vivo, mouse", "settings": "semi-quantitative rating 0-4, versus vehicle", "method": "The effect of CPO_Aβ17-21 P on Aβ deposition was tested in APP/PS1 Tg mice with plaque pathology. This AD mouse model develops plaque pathology from the age of 3 months. Animals were divided into two groups and received intraperitoneally (i.p.) injections of 0.2 mg of CPO_ Aβ17–21 P per mouse in sterile saline (n = 11, 5 male, 6 female) or saline alone (n = 10, 5 male, 5 female) as a control twice weekly for 4 months, beginning at age 3 months. During the treatment, veterinary staff monitored animals for any signs of toxicity, such as changes in body weight, physical appearance, and altered behavior. Animals were sacrificed a week after administration of the last treatment dose and behavioral testing. All mouse care and experimental procedures were compliant with guidelines of animal experimentation and were approved by the Institutional Animal Care and Use Committee at the New York University School of Medicine.\nMice were anesthetized with sodium pentobarbital (150 mg/kg, i.p.) and blood was collected via cardiac puncture and plasma was separated by centrifugation. Animals were perfused transaortically. The brains and internal organs were collected and cut into halves, one half immersion-fixed in periodate-lysine paraformaldehyde (PLP) for histopathological analysis, and another half snap-frozen for biochemical studies as previously described. Serial coronal brain sections (40 μm) were cut evenly spaced every 400 μm μm along the entire rostro-caudal brain axis and stained for immunohistochemical analysis with: (1) a mixture of anti-Aβ monoclonal antibodies 6E10/4G8 (1 :2000) (Covance, Princeton, NJ), (2) polyclonal anti-glial fibrillary acidic protein (GFAP) antibody (1:1000) (Dako, Carpinteria, CA), (3) polyclonal anti-Iba1 antibody (1:1000) (Wako Chemicals, Richmond, VA) and (4) monoclonal anti-CD11b (1: 500) (Serotec, Raleigh, NC). To measure treated mice brain total amyloid burden change, two different anti-Aβ monoclonal antibodies with distinct epitopes 6E10 (epitope Aβ1–16) and 4G8 (epitope Aβ17–24) were used[38]. To examine brain inflammation levels associated with treatment, we assessed the degree of astrocytosis with GFAP immunoreactivity and the degree of microgliosis with Iba1 and CD11b immunoreactivity as previously published, [37], [39], [40]. GFAP is a component of the glial intermediate filaments that form part of the cytoskeleton and is found predominantly in astrocytes. CD11b is a protein subunit that forms integrin alpha-M beta-2 (αMβ2) molecule, also known as MAC-1 or complement receptor 3 (CR3). CD11b monoclonal antibodies are commonly used for detection of microglial activation at the earliest stages of plaque development. In addition, Iba1 (ionized calcium binding adaptor molecule) antibody was used to label the entire microglia population including activated and resting microglia, a marker for detecting generic microglia, [43]. Immunohistochemistry was performed on free floating coronal brain sections. Details of the procedure and techniques were described previously, [37], [39], [40]. […] Human Alzheimer disease patients brain sections were used for positive control immunostaining, sequential mouse brain sections with omission of the primary antibody were used for negative immunostaining controls.\nThe assessment of astrocytosis and microgliosis were based on a semi-quantitative analysis, using methods we have previously published by a rater blinded to the treatment status of the mice[19], [37], [39], [40]. Prior to analysis, brains were microscopically examined and rated on a scale from 0–4, in increments of 0.5, depending on the degree of pathology and/or the activation stage of the glial cells. All stained cortical and hippocampal sections were analyzed at 10x magnification. Approximately 8 cortical sections and 6 hippocampal sections were analyzed per animal. […]"}}, "note": "Numbered stars: 1 amine (or outer) side, 2 acyl side, 3 side chain; on linkers, the order of the positions; unused ones are H or OH. Bridge positions count the residues as written; N and C are the ends. Square brackets hold non-standard residues; d marks the D form. Peptide text beside a SMILES is read from it. ξ: configuration not given here. N(CH2CH2CO)Gly = O=C(CN(CCC(=O)[*:3])[*:1])[*:2]; Nphe = O=C(O)CNCc1ccccc1; Nleu = CC(C)CNCC(=O)O; ξP = O=C(O)C1CCCN1; Sar = CNCC(=O)O"}
{"smiles": "CC(C)CN1CC(=O)N2CCCC2C(=O)N(Cc2ccccc2)CC(=O)N(Cc2ccccc2)CC(=O)N(C)CC(=O)N(CC(N)=O)CCC1=O", "note": "(stereo not drawn) [CPO_Aβ17-21 P] ([Nleu][ξP][Nphe][Nphe][Sar][N(CH2CH2CO)Gly]-NH2; lactam N-6)", "values": [{"measurement": "neutralization of apoE4-enhanced cytotoxicity of Aβ42", "setting": "[1]", "value": "neutralized"}, {"measurement": "total amyloid burden (6E10/4G8 immunoreactivity), cortex", "setting": "APP/PS1 Tg mice [2]; p = 0.0226 versus vehicle", "value": "significant reduction"}, {"measurement": "total amyloid burden (6E10/4G8 immunoreactivity), hippocampus", "setting": "APP/PS1 Tg mice [2]; p = 0.0361 versus vehicle", "value": "significant reduction"}, {"measurement": "cortical astrogliosis (GFAP immunoreactivity)", "setting": "APP/PS1 Tg mice [3]", "value": "no significant effect"}, {"measurement": "cortical microgliosis (CD11b immunoreactivity)", "setting": "APP/PS1 Tg mice [3]", "value": "decreased"}, {"measurement": "cortical microgliosis (Iba1 immunoreactivity)", "setting": "APP/PS1 Tg mice [3]", "value": "reduced"}, {"measurement": "hippocampal astrogliosis (GFAP immunoreactivity)", "setting": "APP/PS1 Tg mice [3]", "value": "decreased"}, {"measurement": "hippocampal microgliosis (CD11b immunoreactivity)", "setting": "APP/PS1 Tg mice [3]", "value": "no significant effect"}, {"measurement": "hippocampal microgliosis (Iba1 immunoreactivity)", "setting": "APP/PS1 Tg mice [3]", "value": "no significant effect"}]}
